Records with an inconclusive call do not appear. Calls of active or inactive are those of the source. The rule behind the calls is not given here.

The test system of the data set is rat and mouse 2-year carcinogenicity bioassay, tumor evidence. Briefly: Consolidated carcinogenicity assay summary data.

For `Cc1cccc(C)c1N`, the carcinogen call (Route (rodents): Dosed feed) is “active; clear evidence”. The same measure, in the same setting: as for `O=c1c(O)c(-c2ccc(O)c(O)c2)oc2cc(O)cc(O)c12`, the entry is “active; some evidence”. Consider `CCc1ccccc1`, for which, under “Route (rodents): Inhalation”, the carcinogen call was “active; clear evidence”. For the compound `O=NN(c1ccccc1)c1ccccc1`, the carcinogen call (Route (rodents): Dosed feed) is “active; clear evidence”.

Regarding `Cc1ccc(N)cc1N`, for the setting “Route (rodents): Dosed feed”, the carcinogen call was “active; clear evidence”. Still for that read-out and setting: the value for `Nc1ccc(N=Nc2ccccc2)c(N)n1` was “active; clear evidence”; that for `CN(C)NC(=O)CCC(=O)O` was “active; no evidence”. Still for that read-out and setting: the value for `Nc1cccc2c(N)cccc12` was “active; no evidence”; that for `O=C1C2(Cl)C3(Cl)C4(Cl)C(Cl)(Cl)C5(Cl)C3(Cl)C1(Cl)C5(Cl)C24Cl` (stereo not given) was “active; clear evidence”; that for `O=C(c1ccccc1)c1ccccc1` was “active; some evidence”.

On to `COc1cc(-c2ccc(N=Nc3c(S(=O)(=O)O)cc4cc(S(=O)(=O)O)cc(N)c4c3O)c(OC)c2)ccc1N=Nc1c(S(=O)(=O)O)cc2cc(S(=O)(=O)O)cc(N)c2c1O`, for which the carcinogen call (Route (rodents): Dosed water) is “active; clear evidence”. For `[Cl-].[Cl-].[Hg+2]`, where the note is “Route (rodents): Gavage”, the carcinogen call is “active; some evidence”.

Consider `[P]#[In]`, for which the carcinogen call (Route (rodents): Inhalation) is “active; clear evidence”.

With `ClC1(Cl)C2(Cl)C3(Cl)C4(Cl)C(Cl)(Cl)C5(Cl)C3(Cl)C1(Cl)C5(Cl)C24Cl` (stereo not given), the carcinogen call (Route (rodents): Dosed feed) was “active; clear evidence”. The same measure, in the same setting: as for `CC(=O)Nc1ccc(N=Nc2cc(C)ccc2O)cc1`, the entry is “active; clear evidence”; as for `Cc1ccc(Cl)cc1N`, “active; no evidence”. The same measure, in the same setting: the value for `N#Cc1c(Cl)c(Cl)c(Cl)c(C#N)c1Cl` was “active; clear evidence”. Turning to `Cc1cccnc1`, the carcinogen call (Route (rodents): Dosed water) is “active; no evidence”. On to `ClCc1cccnc1`, for which, where the note is “Route (rodents): Gavage”, the carcinogen call is “active; clear evidence”. For `CCCCOCCO`, the carcinogen call (Route (rodents): Inhalation) was “active; no evidence”.

`Nc1cc([N+](=O)[O-])ccc1O`: the carcinogen call (Route (rodents): Gavage) is “active; some evidence”. Still for that read-out and setting: as for `C=C(C)[C@H]1CC=C(C)CC1`, the entry is “active; clear evidence”. Regarding `CC(C)(c1cc(Br)c(O)c(Br)c1)c1cc(Br)c(O)c(Br)c1`, the carcinogen call (Route (rodents): Gavage) is “active; equivocal evidence”. `NS(=O)(=O)c1cc(C(=O)O)c(NCc2ccco2)cc1Cl`: the carcinogen call (Route (rodents): Dosed feed) was “active; equivocal evidence”. Same read-out and setting: as for `O=C1NC(=O)C(c2ccccc2)(c2ccccc2)N1`, the entry is “active; equivocal evidence”; as for `S=C1NCCN1`, “active; clear evidence”. On to `CC(=O)C(C)=O`, for which the carcinogen call (Route (rodents): Inhalation) was “active; some evidence”. For the compound `C=CCOC(=O)CC(C)C`, the carcinogen call (Route (rodents): Gavage) is “active; clear evidence”. Take `CC(=O)OCc1ccccc1`: for the setting “Route (rodents): Gavage, Second Route: Dosed Feed”, the carcinogen call was “active; equivocal evidence”. In the case of `CC(C)=CCl`, the carcinogen call (Route (rodents): Gavage) was “active; clear evidence”.

On to `CC(C)c1ccccc1`, for which, under “Route (rodents): Inhalation”, the carcinogen call is “active; clear evidence”. `Nc1ncc([N+](=O)[O-])s1`: the carcinogen call (Route (rodents): Dosed feed) is “active; clear evidence”.

As for `CCOC(N)=O`, for the setting “Route (rodents): Dosed water”, the carcinogen call is “active”. With `c1ccccc1`, the carcinogen call (Route (rodents): Gavage) is “active; clear evidence”.

Regarding `S=c1[nH]c2ccccc2s1`, where the note is “Route (rodents): Gavage”, the carcinogen call was “active; some evidence”.

The values above are taken from PubChem BioAssay AID2202555 (NIEHS Division of Translational Toxicology (DTT)).
